Legend:
[1] = tested on: Eimeria acervulina, Eimeria maxima and Eimeria tenella; experiment: Example 8 broiler study under severe coccidiosis challenge conditions; assay type: in vivo, Ross 708 broiler chicks; settings: 28-day mortality; compared to the challenged control
Text: EXAMPLE 8 of the present disclosure describes a study to evaluate the efficacy of a combination of xylanase (10 U/g feed), B. licheniformis strain PWD-1 (1×10^5 CFU/g feed), and B. amyloliquefaciens strain Ba-BPD1 (5×10^5 CFU/g feed) referred to as “Xyl+B+Y”, to minimize the severity of gut lesions and improve overall livability of broiler chickens fed standard corn-soy diets and reared under severe coccidiosis challenge conditions. In the study chicks were twice challenged with a live vaccine containing the live oocysts of highly-immunogenic, coccidiostat-sensitive strains of Eimeria acervulina, Eimeria maxima and Eimeria tenella by oral gavage and the Xyl+B+Y combination was compared to salinomycin sodium which is referred to as “Coccidiostat” in FIG. 13. […]
MATERIALS AND METHODS: Four hundred male Ross 708 broiler chicks were randomly assigned to 1 of 4 dietary treatments, with 7 replicate battery cages per treatment (except Treatment 1, the unchallenged positive control, which contained 4 replicate cages), and 16 birds per cage. […] The key parameters evaluated were upper-tract intestinal lesion scores, middle-tract intestinal lesion scores, mortality/livability, and feed conversion ratio (FCR).

[2] = tested on: Clostridium perfringens, Eimeria acervulina, and Eimeria maxima, and Eimeria tenella; assay type: in vivo, Ross 708 broilers; settings: at 21-days and 42-days of age; versus control

Compound | reduction of mortality [1] [%] | effect on mortality [2]
CC[C@@H](C(=O)[C@@H](C)[C@@H](O)[C@H](C)[C@@H]1O[C@@H]([C@@H](CC)C(=O)O)CC[C@@H]1C)[C@H]1O[C@]2(C=C[C@@H](O)[C@]3(CC[C@@](C)([C@H]4CC[C@](O)(CC)[C@H](C)O4)O3)O2)[C@H](C)C[C@@H]1C [Coccidiostat, salinomycin sodium] | 25 | –
bacitracin methylene disalicylate [AGP] | – | did not significantly improve
